Test results reported in US10689354B2, “Aminoazole derivative” (Teijin Pharma Limited, priority 2015, dated 2020).

Key:
[1] = target: T1, androgen receptor (AR-LBD) (Rattus norvegicus, UniProt P15207); assay: Evaluation of androgen receptor affinity (PolarScreen Androgen Receptor Competitor Assay Kit, Red; fluorescence polarization); settings: 22° C. for 5 hours, relative to binding rate of 1 μM DHT, read-out: AR affinity (pEC50) (converted)
T1 construct: 5 μL of 2×AR-LBD/Fluoromone AL Red Complex contained in the kit; purchased Invitrogen
T1 sequence (P15207 651-882 limits assumed): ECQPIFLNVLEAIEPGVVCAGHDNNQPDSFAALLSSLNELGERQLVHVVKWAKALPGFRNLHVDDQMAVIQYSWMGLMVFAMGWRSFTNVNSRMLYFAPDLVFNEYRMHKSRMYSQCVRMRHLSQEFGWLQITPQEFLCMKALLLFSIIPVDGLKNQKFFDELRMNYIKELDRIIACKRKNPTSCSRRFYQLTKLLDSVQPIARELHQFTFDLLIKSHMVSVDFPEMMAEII
Summary of the method: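 Duplicate wells of test compound were mixed with the kit's rat AR-LBD–Fluoromone AL Red tracer complex and left 5 hours at 22 °C before polarization was read. A 4-parameter fit gave pEC50, with binding rate referenced to 1 μM dihydrotestosterone.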

[2] = target: T2, human androgen receptor (Homo sapiens, UniProt P10275); assay: Reporter assay of an androgen receptor responsive sequence (luciferase, transiently transfected HEK293 cells); format: cell-based; settings: 24 hours incubation, relative to activity of 100 nM DHT, read-out: AR transcriptive activity (pEC50) (converted)
T2 construct: expressed in transfected cells; host or cells: HEK293
T2 sequence (P10275 1-920): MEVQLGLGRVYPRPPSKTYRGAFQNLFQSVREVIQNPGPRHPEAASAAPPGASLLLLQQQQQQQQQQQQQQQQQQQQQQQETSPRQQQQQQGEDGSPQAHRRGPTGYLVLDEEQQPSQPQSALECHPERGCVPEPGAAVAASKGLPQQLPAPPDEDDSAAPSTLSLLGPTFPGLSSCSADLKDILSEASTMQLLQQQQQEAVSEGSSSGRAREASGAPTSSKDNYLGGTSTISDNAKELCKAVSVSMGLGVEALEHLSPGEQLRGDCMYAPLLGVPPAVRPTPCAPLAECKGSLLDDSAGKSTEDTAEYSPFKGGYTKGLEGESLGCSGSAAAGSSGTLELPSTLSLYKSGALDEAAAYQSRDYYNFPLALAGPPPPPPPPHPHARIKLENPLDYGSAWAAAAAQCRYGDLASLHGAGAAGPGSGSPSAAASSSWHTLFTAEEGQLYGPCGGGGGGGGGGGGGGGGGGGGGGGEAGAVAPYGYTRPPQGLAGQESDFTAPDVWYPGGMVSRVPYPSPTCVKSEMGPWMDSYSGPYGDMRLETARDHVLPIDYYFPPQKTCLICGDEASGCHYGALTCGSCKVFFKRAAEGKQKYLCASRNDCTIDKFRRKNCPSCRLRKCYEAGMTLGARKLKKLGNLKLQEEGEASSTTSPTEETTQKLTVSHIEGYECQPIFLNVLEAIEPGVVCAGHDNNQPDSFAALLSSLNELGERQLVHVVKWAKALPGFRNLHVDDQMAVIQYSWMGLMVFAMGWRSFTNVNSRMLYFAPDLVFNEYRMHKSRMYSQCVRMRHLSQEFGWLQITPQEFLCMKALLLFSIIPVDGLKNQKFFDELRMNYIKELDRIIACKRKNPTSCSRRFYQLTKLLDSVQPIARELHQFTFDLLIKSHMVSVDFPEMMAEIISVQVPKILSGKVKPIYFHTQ
Summary of the method: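 Agonism scored as pEC50, fitted by 4-parameter curve against the response to 100 nM DHT, from dual-luciferase readout after 24 h compound treatment. Cells were HEK293 co-transfected (3 h) with human AR expression vector, androgen-responsive firefly reporter and Renilla control, in charcoal-stripped serum.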

| SMILES | EC50 [1] | EC50 [2] |
| --- | --- | --- |
| CS(=O)(=O)NC(=O)c1nc(N(Cc2cccc(F)c2)c2ccc(C#N)cc2)sc1Cl [Example 258, 5-chloro-2-[4-cyano-N-[(3-fluorophenyl)methyl]anilino]-N-methylsulfonyl-thiazole-4-carboxamide] | 63.1 nM | 100 nM |
| CS(=O)(=O)NC(=O)c1nc(N(Cc2ccc(F)cc2)c2ccc(C#N)cc2)sc1Cl [Example 262, 5-chloro-2-[4-cyano-N-[(4-fluorophenyl)methyl]anilino]-N-methylsulfonyl-thiazole-4-carboxamide] | 50.1 nM | 39.8 nM |
| CS(=O)(=O)NC(=O)c1nc(N(Cc2ccccc2Cl)c2ccc(C#N)cc2)sc1Cl [Example 263, 5-chloro-2-[N-[(2-chlorophenyl)methyl]-4-cyano-anilino]-N-methylsulfonyl-thiazole-4-carboxamide] | 63.1 nM | 316 nM |
| COc1cccc(CN(c2ccc(C#N)cc2)c2nc(C(=O)NS(C)(=O)=O)c(Br)s2)c1 [Example 265, 5-bromo-2-[4-cyano-N-[(3-methoxyphenyl)methyl]anilino]-N-methylsulfonyl-thiazole-4-carboxamide] | 50.1 nM | 158 nM |
| CS(=O)(=O)NC(=O)c1nc(N(Cc2cccc(Cl)c2)c2ccc(C#N)cc2)sc1Cl [Example 268, 5-chloro-2-[N-[(3-chlorophenyl)methyl]-4-cyano-anilino]-N-methylsulfonyl-thiazole-4-carboxamide] | 50.1 nM | 63.1 nM |
| CS(=O)(=O)NC(=O)c1nc(N(Cc2ccc(Cl)cc2)c2ccc(C#N)cc2)sc1Cl [Example 269, 5-chloro-2-[N-[(4-chlorophenyl)methyl]-4-cyano-anilino]-N-methylsulfonyl-thiazole-4-carboxamide] | 25.1 nM | 20 nM |
| COc1ccccc1CN(c1ccc(C#N)cc1)c1nc(C(=O)NS(C)(=O)=O)c(Cl)s1 [Example 270, 5-chloro-2-[4-cyano-N-[(2-methoxyphenyl)methyl]anilino]-N-methylsulfonyl-thiazole-4-carboxamide] | 79.4 nM | 251 nM |
| COc1ccc(CN(c2ccc(C#N)cc2)c2nc(C(=O)NS(C)(=O)=O)c(Cl)s2)cc1 [Example 271, 5-chloro-2-[4-cyano-N-[(4-methoxyphenyl)methyl]anilino]-N-methylsulfonyl-thiazole-4-carboxamide] | 79.4 nM | 50.1 nM |
| CS(=O)(=O)NC(=O)c1nc(N(Cc2ccc(C(F)(F)F)cc2)c2ccc(C#N)cc2)sc1Cl [Example 272, 5-chloro-2-[4-cyano-N-[[4-(trifluoromethyl)phenyl]methyl]anilino]-N-methylsulfonyl-thiazole-4-carboxamide] | 31.6 nM | 25.1 nM |
| CS(=O)(=O)NC(=O)c1nc(N(Cc2cccc(OC(F)(F)F)c2)c2ccc(C#N)cc2)sc1Cl [Example 273, 5-chloro-2-[4-cyano-N-[[3-(trifluoromethoxy)phenyl]methyl]anilino]-N-methylsulfonyl-thiazole-4-carboxamide] | 31.6 nM | 63.1 nM |
| CS(=O)(=O)NC(=O)c1nc(N(Cc2ccc(OC(F)(F)F)cc2)c2ccc(C#N)cc2)sc1Cl [Example 274, 5-chloro-2-[4-cyano-N-[[4-(trifluoromethoxy)phenyl]methyl]anilino]-N-methylsulfonyl-thiazole-4-carboxamide] | 39.8 nM | 79.4 nM |
| CS(=O)(=O)NC(=O)c1nc(N(Cc2ccccc2OC(F)F)c2ccc(C#N)cc2)sc1Cl [Example 275, 5-chloro-2-[4-cyano-N-[[2-(difluoromethoxy)phenyl]methyl]anilino]-N-methylsulfonyl-thiazole-4-carboxamide] | 63.1 nM | 316 nM |
| CS(=O)(=O)NC(=O)c1nc(N(Cc2cccc(OC(F)F)c2)c2ccc(C#N)cc2)sc1Cl [Example 276, 5-chloro-2-[4-cyano-N-[[3-(difluoromethoxy)phenyl]methyl]anilino]-N-methylsulfonyl-thiazole-4-carboxamide] | 50.1 nM | 126 nM |
| CS(=O)(=O)NC(=O)c1nc(N(Cc2ccc(OC(F)F)cc2)c2ccc(C#N)cc2)sc1Cl [Example 277, 5-chloro-2-[4-cyano-N-[[4-(difluoromethoxy)phenyl]methyl]anilino]-N-methylsulfonyl-thiazole-4-carboxamide] | 63.1 nM | 50.1 nM |
| CS(=O)(=O)NC(=O)c1nc(N(Cc2ccc3occc3c2)c2ccc(C#N)cc2)sc1Cl [Example 279, 2-[N-(benzofuran-5-ylmethyl)-4-cyano-anilino]-5-chloro-N-methylsulfonyl-thiazole-4-carboxamide] | 31.6 nM | 50.1 nM |
| CS(=O)(=O)NC(=O)c1nc(N(Cc2cc3ccccc3s2)c2ccc(C#N)cc2)sc1Cl [Example 280, 2-[N-(benzothiophen-2-ylmethyl)-4-cyano-anilino]-5-chloro-N-methylsulfonyl-thiazole-4-carboxamide] | 50.1 nM | 25.1 nM |
| Cc1nc(CN(c2ccc(C#N)cc2)c2nc(C(=O)NS(C)(=O)=O)c(Br)s2)cs1 [Example 281, 5-bromo-2-[4-cyano-N-[(2-methylthiazol-4-yl)methyl]anilino]-N-methylsulfonyl-thiazole-4-carboxamide] | 398 nM | 631 nM |
| CS(=O)(=O)NC(=O)c1nc(N(Cc2ccc(F)cc2)c2ccc(C(F)(F)F)nc2)sc1Br [Example 282, 5-bromo-2-[(4-fluorophenyl)methyl-[6-(trifluoromethyl)-3-pyridyl]amino]-N-methylsulfonyl-thiazole-4-carboxamide] | 39.8 nM | 316 nM |
| COCCCS(=O)(=O)NC(=O)c1nc(N(Cc2ccc(Cl)cn2)c2ccc(C#N)cc2)sc1C1CC1 [Example 283, 2-[N-[(5-chloro-2-pyridyl)methyl]-4-cyano-anilino]-5-cyclopropyl-N-(3-methoxypropylsulfonyl)thiazole-4-carboxamide] | 200 nM | > 10000 nM |
| CS(=O)(=O)NC(=O)c1nc(N(Cc2ccccc2)c2ccc(C#N)cc2)sc1C(F)F [Example 284, 2-(N-benzyl-4-cyano-anilino)-5-(difluoromethyl)-N-methylsulfonyl-thiazole-4-carboxamide] | 126 nM | > 10000 nM |
| Cc1oc(N(Cc2ccc(Br)cc2)c2ccc(C#N)cc2)nc1C(=O)NS(C)(=O)=O [Example 285, 2-[N-[(4-bromophenyl)methyl]-4-cyano-anilino]-5-methyl-N-methylsulfonyl-oxazole-4-carboxamide] | 50.1 nM | 200 nM |
| Cc1oc(N(Cc2ccc(Cl)cc2)c2ccc(C#N)cc2)nc1C(=O)NS(C)(=O)=O [Example 286, 2-[N-[(4-chlorophenyl)methyl]-4-cyano-anilino]-5-methyl-N-methylsulfonyl-oxazole-4-carboxamide] | 501 nM | 316 nM |
| Cc1sc(N(CCc2ccccc2)Cc2ccccc2)nc1C(=O)NS(C)(=O)=O [Example 294, 2-[benzyl(2-phenylethyl)amino]-5-methyl-N-methylsulfonyl-thiazole-4-carboxamide] | 100 nM | 1000 nM |
| Cc1sc(N(CCC2CCCCC2)Cc2ccccc2)nc1C(=O)NS(C)(=O)=O [Example 298, 2-[benzyl(2-cyclohexylethyl)amino]-5-methyl-N-methylsulfonyl-thiazole-4-carboxamide] | 100 nM | > 10000 nM |
